How the values were obtained:
Dipeptidyl peptidase 4 = Dipeptidyl peptidase 4 (Homo sapiens, UniProt P27487); experiment: DPP IV Assay; settings: pH 8.3
Method: Inhibitory concentration of the compound against Dipeptidyl peptidase IV (DPP IV) in Homo sapiens (human)is measured

Dipeptidyl peptidase 2 = Dipeptidyl peptidase 2 (Homo sapiens, UniProt Q9UHL4); experiment: DPP IV Assay; settings: pH 5.5

Dipeptidyl peptidase 4, sequence (P27487 whole entry): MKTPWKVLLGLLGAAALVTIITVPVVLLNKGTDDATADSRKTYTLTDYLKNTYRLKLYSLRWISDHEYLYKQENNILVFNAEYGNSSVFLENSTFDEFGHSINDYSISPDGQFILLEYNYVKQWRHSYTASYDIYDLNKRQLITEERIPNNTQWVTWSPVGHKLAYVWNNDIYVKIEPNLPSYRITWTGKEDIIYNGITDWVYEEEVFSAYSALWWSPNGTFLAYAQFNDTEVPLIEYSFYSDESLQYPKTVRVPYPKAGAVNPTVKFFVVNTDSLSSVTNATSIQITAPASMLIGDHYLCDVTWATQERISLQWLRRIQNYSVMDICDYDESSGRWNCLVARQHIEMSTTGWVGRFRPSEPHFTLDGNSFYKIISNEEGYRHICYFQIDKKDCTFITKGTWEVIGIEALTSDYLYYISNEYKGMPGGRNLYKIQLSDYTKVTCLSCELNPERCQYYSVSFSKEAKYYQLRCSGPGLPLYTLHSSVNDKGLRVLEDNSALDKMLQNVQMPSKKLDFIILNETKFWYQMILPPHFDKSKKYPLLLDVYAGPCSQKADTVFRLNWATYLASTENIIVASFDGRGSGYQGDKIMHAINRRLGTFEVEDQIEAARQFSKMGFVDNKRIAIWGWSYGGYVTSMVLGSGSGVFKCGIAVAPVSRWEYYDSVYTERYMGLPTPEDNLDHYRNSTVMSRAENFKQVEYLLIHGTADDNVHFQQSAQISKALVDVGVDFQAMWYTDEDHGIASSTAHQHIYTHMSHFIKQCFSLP

For `CC(NC(=O)CN)P(=O)(Oc1ccccc1)Oc1ccccc1` (centres undefined) [2-amino-N-(1-diphenoxyphosphorylethyl)acetamide], the IC50 (Dipeptidyl peptidase 4) was over 500 µM and the IC50 (Dipeptidyl peptidase 2) was over 1000 µM.
`CCC(C)[C@H](N)C(=O)NC(c1ccccc1)P(=O)(Oc1ccccc1)Oc1ccccc1` (stereo partly drawn) [(2S)-2-amino-N-[diphenoxyphosphoryl(phenyl)methyl]-3-methyl-pentanamide] showed an IC50 (Dipeptidyl peptidase 4) of over 250 µM and an IC50 (Dipeptidyl peptidase 2) of 18 µM.
For `NCCCC[C@H](N)C(=O)N1CCCC1P(=O)(Oc1ccccc1)Oc1ccccc1` (some centres undefined), the IC50 (Dipeptidyl peptidase 4) was 117 µM and the IC50 (Dipeptidyl peptidase 2) was over 1000 µM.
`CCC(CC)C(NC(=O)[C@@H](N)C(C)CC)P(=O)(Oc1ccccc1)Oc1ccccc1` (stereo partly drawn) [(2S)-2-amino-N-(1-diphenoxyphosphoryl-2-ethyl-butyl)-3-methyl-pentanamide] was tested, and the IC50 (Dipeptidyl peptidase 4) was over 1000 µM and the IC50 (Dipeptidyl peptidase 2) was over 1000 µM.
For `N[C@@H](Cc1ccccc1)C(=O)N1CCCC1P(=O)(Oc1ccccc1)Oc1ccccc1` (some centres undefined), the IC50 (Dipeptidyl peptidase 4) was 142 µM and the IC50 (Dipeptidyl peptidase 2) was over 1000 µM.
Compound `C[C@H](N)C(=O)N1CCCC1P(=O)(Oc1ccccc1)Oc1ccccc1` (some centres undefined) has an IC50 (Dipeptidyl peptidase 4) of over 1000 µM and an IC50 (Dipeptidyl peptidase 2) of over 1000 µM.
For `CC(NC(=O)[C@H](C)N)P(=O)(Oc1ccccc1)Oc1ccccc1` (stereo partly drawn) [(2S)-2-amino-N-(1-diphenoxyphosphorylethyl)propanamide], the IC50 (Dipeptidyl peptidase 2) was under 1000 µM.
`CCC(C)[C@H](N)C(=O)NC(C)P(=O)(Oc1ccccc1)Oc1ccccc1` (stereo partly drawn) [(2S)-2-amino-N-(1-diphenoxyphosphorylethyl)-3-methyl-pentanamide] showed an IC50 (Dipeptidyl peptidase 4) of over 500 µM and an IC50 (Dipeptidyl peptidase 2) of 116 µM.
Compound `CCC(C)[C@H](N)C(=O)NC(CC)P(=O)(Oc1ccccc1)Oc1ccccc1` (stereo partly drawn) [(2S)-2-amino-N-(1-diphenoxyphosphorylpropyl)-3-methyl-pentanamide] has an IC50 (Dipeptidyl peptidase 4) of over 1000 µM and an IC50 (Dipeptidyl peptidase 2) of 1000 µM.
In the case of `N[C@@H](CC(=O)O)C(=O)N1CCCC1P(=O)(Oc1ccccc1)Oc1ccccc1` (some centres undefined), the IC50 (Dipeptidyl peptidase 4) is reported as over 1000 µM.
Compound `CC(NC(=O)[C@@H](N)CC1CCCCC1)P(=O)(Oc1ccccc1)Oc1ccccc1` (stereo partly drawn) [(2S)-2-amino-3-cyclohexyl-N-(1-diphenoxyphosphorylethyl)propanamide] has an IC50 (Dipeptidyl peptidase 4) of over 500 µM and an IC50 (Dipeptidyl peptidase 2) of 47 µM.
With `CC(NC(=O)[C@@H](N)Cc1cnc[nH]1)P(=O)(Oc1ccccc1)Oc1ccccc1` (stereo partly drawn) [(2S)-2-amino-N-(1-diphenoxyphosphorylethyl)-3-(1H-imidazol-4-yl)propanamide] the IC50 (Dipeptidyl peptidase 4) was over 500 µM and the IC50 (Dipeptidyl peptidase 2) was over 500 µM.
`CCC(C)[C@H](N)C(=O)NC(C(C)C)P(=O)(Oc1ccccc1)Oc1ccccc1` (stereo partly drawn) [(2S)-2-amino-N-(1-diphenoxyphosphoryl-2-methyl-propyl)-3-methyl-pentanamide] showed an IC50 (Dipeptidyl peptidase 4) of over 1000 µM and an IC50 (Dipeptidyl peptidase 2) of 1000 µM.
With `CC(NC(=O)[C@@H](N)Cc1ccccc1)P(=O)(Oc1ccccc1)Oc1ccccc1` (stereo partly drawn) [(2S)-2-amino-N-(1-diphenoxyphosphorylethyl)-3-phenyl-propanamide] the IC50 (Dipeptidyl peptidase 4) was over 500 µM and the IC50 (Dipeptidyl peptidase 2) was under 1000 µM.
Compound `CCC(C)[C@H](N)C(=O)NC(C1CCCCC1)P(=O)(Oc1ccccc1)Oc1ccccc1` (stereo partly drawn) [(2S)-2-amino-N-[cyclohexyl(diphenoxyphosphoryl)methyl]-3-methyl-pentanamide] has an IC50 (Dipeptidyl peptidase 4) of over 1000 µM and an IC50 (Dipeptidyl peptidase 2) of 148 µM.
`CC(NC(=O)[C@@H](N)CO)P(=O)(Oc1ccccc1)Oc1ccccc1` (stereo partly drawn) [(2S)-2-amino-N-(1-diphenoxyphosphorylethyl)-3-hydroxy-propanamide] showed an IC50 (Dipeptidyl peptidase 4) of over 500 µM and an IC50 (Dipeptidyl peptidase 2) of over 1000 µM.
With `N[C@@H](CC1CCCCC1)C(=O)NC(C1CCCCC1)P(=O)(Oc1ccccc1)Oc1ccccc1` (stereo partly drawn) [(2S)-2-amino-3-cyclohexyl-N-[cyclohexyl(diphenoxyphosphoryl)methyl]propanamide] the IC50 (Dipeptidyl peptidase 4) was over 250 µM and the IC50 (Dipeptidyl peptidase 2) was 30 µM.
`CC(C)[C@H](N)C(=O)NC(C)P(=O)(Oc1ccccc1)Oc1ccccc1` (stereo partly drawn) [(2S)-2-amino-N-(1-diphenoxyphosphorylethyl)-3-methyl-butanamide] was tested, and the IC50 (Dipeptidyl peptidase 4) was over 500 µM and the IC50 (Dipeptidyl peptidase 2) was under 1000 µM.
Work on `CCCC(NC(=O)[C@@H](N)CCCCN)P(=O)(Oc1ccccc1)Oc1ccccc1` (stereo partly drawn) [(2S)-2,6-diamino-N-(1-diphenoxyphosphorylbutyl)hexanamide] yielded an IC50 (Dipeptidyl peptidase 4) of over 1000 µM and an IC50 (Dipeptidyl peptidase 2) of over 1000 µM.
In the case of `CCC(C)C(NC(=O)[C@@H](N)C(C)CC)P(=O)(Oc1ccccc1)Oc1ccccc1` (stereo partly drawn) [(2S)-2-amino-N-(1-diphenoxyphosphoryl-2-methyl-butyl)-3-methyl-pentanamide], the IC50 (Dipeptidyl peptidase 4) is reported as over 1000 µM and the IC50 (Dipeptidyl peptidase 2) is reported as 414 µM.
In the case of `O=C(CNC1CCCC1)NC(C1CCCCC1)P(=O)(Oc1ccccc1)Oc1ccccc1` (centres undefined) [N-[cyclohexyl(diphenoxyphosphoryl)methyl]-2-(cyclopentylamino)acetamide], the IC50 (Dipeptidyl peptidase 4) is reported as over 125 µM and the IC50 (Dipeptidyl peptidase 2) is reported as 8 µM.
In the case of `CCC(C)[C@H](N)C(=O)NC(CC(C)C)P(=O)(Oc1ccccc1)Oc1ccccc1` (stereo partly drawn) [(2S)-2-amino-N-(1-diphenoxyphosphoryl-3-methyl-butyl)-3-methyl-pentanamide], the IC50 (Dipeptidyl peptidase 4) is reported as over 1000 µM and the IC50 (Dipeptidyl peptidase 2) is reported as 286 µM.
`CC(C)C[C@H](N)C(=O)NC(C)P(=O)(Oc1ccccc1)Oc1ccccc1` (stereo partly drawn) [(2S)-2-amino-N-(1-diphenoxyphosphorylethyl)-4-methyl-pentanamide] was tested, and the IC50 (Dipeptidyl peptidase 4) was over 1000 µM and the IC50 (Dipeptidyl peptidase 2) was over 500 µM.
`CCC(C)[C@H](N)C(=O)NC(c1ccc(C#N)cc1)P(=O)(Oc1ccccc1)Oc1ccccc1` (stereo partly drawn) [(2S)-2-amino-N-[(4-cyanophenyl)-diphenoxyphosphoryl-methyl]-3-methyl-pentanamide] showed an IC50 (Dipeptidyl peptidase 4) of over 250 µM and an IC50 (Dipeptidyl peptidase 2) of 150 µM.
`CC(NC(=O)[C@@H](N)CC(N)=O)P(=O)(Oc1ccccc1)Oc1ccccc1` (stereo partly drawn) [(2S)-2-amino-N-(1-diphenoxyphosphorylethyl)butanediamide] showed an IC50 (Dipeptidyl peptidase 2) of 286 µM.
`CCCC(NC(=O)[C@@H](N)C(C)CC)P(=O)(Oc1ccccc1)Oc1ccccc1` (stereo partly drawn) [(2S)-2-amino-N-(1-diphenoxyphosphorylbutyl)-3-methyl-pentanamide] was tested, and the IC50 (Dipeptidyl peptidase 4) was over 1000 µM and the IC50 (Dipeptidyl peptidase 2) was 1000 µM.
For `NCC[C@H](N)C(=O)NC(C1CCCCC1)P(=O)(Oc1ccccc1)Oc1ccccc1` (stereo partly drawn) [(2S)-2,4-diamino-N-[cyclohexyl(diphenoxyphosphoryl)methyl]butanamide], the IC50 (Dipeptidyl peptidase 4) was 1000 µM and the IC50 (Dipeptidyl peptidase 2) was 21 µM.
`CCCC(NC(=O)[C@@H](N)CC1CCCCC1)P(=O)(Oc1ccccc1)Oc1ccccc1` (stereo partly drawn) [(2S)-2-amino-3-cyclohexyl-N-(1-diphenoxyphosphorylbutyl)propanamide] gave an IC50 (Dipeptidyl peptidase 4) of over 250 µM and an IC50 (Dipeptidyl peptidase 2) of 500 µM.
`O=C(CNC1CCCC1)NC(c1ccccc1)P(=O)(Oc1ccccc1)Oc1ccccc1` (centres undefined) showed an IC50 (Dipeptidyl peptidase 4) of over 125 µM and an IC50 (Dipeptidyl peptidase 2) of 3.8 µM.
`CCC(NC(=O)[C@@H](N)CC1CCCCC1)P(=O)(Oc1ccccc1)Oc1ccccc1` (stereo partly drawn) [(2S)-2-amino-3-cyclohexyl-N-(1-diphenoxyphosphorylpropyl)propanamide] gave an IC50 (Dipeptidyl peptidase 4) of over 1000 µM and an IC50 (Dipeptidyl peptidase 2) of 62 µM.
Compound `N[C@@H](Cc1cnc[nH]1)C(=O)N1CCCC1P(=O)(Oc1ccccc1)Oc1ccccc1` (some centres undefined) has an IC50 (Dipeptidyl peptidase 4) of 326 µM.
`NC(=O)C[C@H](N)C(=O)N1CCCC1P(=O)(Oc1ccccc1)Oc1ccccc1` (some centres undefined) was tested, and the IC50 (Dipeptidyl peptidase 2) was over 125 µM.
For `N[C@@H](Cc1cnc[nH]1)C(=O)NC(C1CCCCC1)P(=O)(Oc1ccccc1)Oc1ccccc1` (stereo partly drawn) [(2S)-2-amino-N-[cyclohexyl(diphenoxyphosphoryl)methyl]-3-(1H-imidazol-4-yl)propanamide], the IC50 (Dipeptidyl peptidase 4) was over 1000 µM and the IC50 (Dipeptidyl peptidase 2) was 241 µM.
`CC(NC(=O)[C@@H](N)CCCCN)P(=O)(Oc1ccccc1)Oc1ccccc1` (stereo partly drawn) [(2S)-2,6-diamino-N-(1-diphenoxyphosphorylethyl)hexanamide] was tested, and the IC50 (Dipeptidyl peptidase 4) was over 500 µM and the IC50 (Dipeptidyl peptidase 2) was over 1000 µM.
`N[C@@H](CO)C(=O)N1CCCC1P(=O)(Oc1ccccc1)Oc1ccccc1` (stereo partly drawn) [(2S)-2-amino-1-(2-diphenoxyphosphorylpyrrolidin-1-yl)-3-hydroxy-propan-1-one] was tested, and the IC50 (Dipeptidyl peptidase 4) was 503 µM and the IC50 (Dipeptidyl peptidase 2) was over 1000 µM.
`CCC(C)[C@H](N)C(=O)NC(c1cccc(C#N)c1)P(=O)(Oc1ccccc1)Oc1ccccc1` (stereo partly drawn) [(2S)-2-amino-N-[(3-cyanophenyl)-diphenoxyphosphoryl-methyl]-3-methyl-pentanamide] gave an IC50 (Dipeptidyl peptidase 4) of over 125 µM and an IC50 (Dipeptidyl peptidase 2) of 509 µM.
`CC(NC(=O)[C@@H](N)Cc1ccc(O)cc1)P(=O)(Oc1ccccc1)Oc1ccccc1` (stereo partly drawn) [(2S)-2-amino-N-(1-diphenoxyphosphorylethyl)-3-(4-hydroxyphenyl)propanamide] showed an IC50 (Dipeptidyl peptidase 4) of over 500 µM and an IC50 (Dipeptidyl peptidase 2) of over 500 µM.
